Results: PMC12603985, “Dissimilar Reactions and Enzymes for Psilocybin Biosynthesis in Inocybe and Psilocybe Mushrooms” (Angewandte Chemie (International Ed. in English), 2025)

Experiments:
Type in all cases: biochemical, Inocybe corydalina
[1] = system: T1, IpsK; assay: Michaelis-Menten kinetics of phosphotransfer; details: phosphate donor ATP; product assays in TRIS-HCl pH 7.5
T1 construct: N-terminally hexahistidine-tagged; recombinant, purified

[2] = system: T2, IpsM2; assay: Michaelis-Menten kinetics of methyl transfer; details: methyl donor SAM; product assays in TRIS-HCl pH 7.5
T2 construct: heterologously produced and purified

[3] = system: T3, IpsM1; assay: Michaelis-Menten kinetics of methyl transfer; details: methyl donor SAM; product assays in TRIS-HCl pH 7.5
T3 construct: heterologously produced and purified

[4] = system: T4, IpsD; assay: Michaelis-Menten kinetics of decarboxylation; details: PLP-dependent
T4 construct: obligate dimer predicted by the model; PLP lysine K300

For CN(C)CCc1c[nH]c2cccc(O)c12 [compound 4, psilocin], the Km [1] was 20.5 µM.

NCCc1c[nH]c2cccc(O)c12 [compound 5, 4-hydroxytryptamine] showed a Km [2] of 64.5 µM and a Km [3] of 101 µM.

In the case of N[C@@H](Cc1c[nH]c2cccc(O)c12)C(=O)O [compound 7, 4-hydroxy-L-tryptophan], the Km [4] is reported as 66 µM.

CNCCc1c[nH]c2cccc(O)c12 [compound 10, 10] gave a Km [1] of 337 µM, a Km [2] of 433 µM and a Km [3] of 138 µM.
